Data on 3 compounds can be found in ChEMBL document CHEMBL1152560, “Substituted 2-arylbenzothiazoles as kinase inhibitors: hit-to-lead optimization” (Bioorg Med Chem, 2009).

Experiment [1] addresses T1, Testis-specific serine/threonine-protein kinase 1 (Homo sapiens) (UniProt Q9BXA7).
T1 sequence (whole entry): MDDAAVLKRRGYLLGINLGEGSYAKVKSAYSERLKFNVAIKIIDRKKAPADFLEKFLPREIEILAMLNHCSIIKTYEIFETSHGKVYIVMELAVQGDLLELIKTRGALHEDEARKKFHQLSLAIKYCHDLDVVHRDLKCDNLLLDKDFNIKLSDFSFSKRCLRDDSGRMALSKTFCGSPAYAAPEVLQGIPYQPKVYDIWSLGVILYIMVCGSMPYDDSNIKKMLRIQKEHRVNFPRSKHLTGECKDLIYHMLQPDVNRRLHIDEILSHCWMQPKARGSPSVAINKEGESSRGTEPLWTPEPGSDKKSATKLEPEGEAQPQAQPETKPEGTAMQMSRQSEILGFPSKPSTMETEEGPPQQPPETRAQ
Kind of experiment: Residual activity of TSSK1 at 0.1 uM by microplate scintillation counting.

For experiment [2], the target named is T2, Serine/threonine-protein kinase Sgk1 (Homo sapiens) (UniProt O00141).
T2 sequence (whole entry): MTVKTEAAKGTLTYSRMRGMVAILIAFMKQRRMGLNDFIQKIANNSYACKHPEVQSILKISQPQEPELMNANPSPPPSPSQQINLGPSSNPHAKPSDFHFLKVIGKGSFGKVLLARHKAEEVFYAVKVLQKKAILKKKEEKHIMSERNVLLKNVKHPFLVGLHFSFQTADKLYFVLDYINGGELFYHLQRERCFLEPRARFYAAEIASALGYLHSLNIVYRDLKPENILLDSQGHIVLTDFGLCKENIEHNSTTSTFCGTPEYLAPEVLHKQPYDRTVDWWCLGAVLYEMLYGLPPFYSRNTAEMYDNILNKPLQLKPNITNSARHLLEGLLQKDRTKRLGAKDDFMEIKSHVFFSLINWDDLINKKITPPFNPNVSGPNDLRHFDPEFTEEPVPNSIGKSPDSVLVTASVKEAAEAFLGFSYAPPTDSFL
Nature of the experiment: Residual activity of SGK1 at 10 uM by microplate scintillation counting.

For experiment [3], the target named is Leukocyte tyrosine kinase receptor (Homo sapiens) (UniProt P29376). Kind of experiment: Residual activity of LTK at 0.1 uM by microplate scintillation counting.
Leukocyte tyrosine kinase receptor (Homo sapiens), sequence (P29376 whole entry): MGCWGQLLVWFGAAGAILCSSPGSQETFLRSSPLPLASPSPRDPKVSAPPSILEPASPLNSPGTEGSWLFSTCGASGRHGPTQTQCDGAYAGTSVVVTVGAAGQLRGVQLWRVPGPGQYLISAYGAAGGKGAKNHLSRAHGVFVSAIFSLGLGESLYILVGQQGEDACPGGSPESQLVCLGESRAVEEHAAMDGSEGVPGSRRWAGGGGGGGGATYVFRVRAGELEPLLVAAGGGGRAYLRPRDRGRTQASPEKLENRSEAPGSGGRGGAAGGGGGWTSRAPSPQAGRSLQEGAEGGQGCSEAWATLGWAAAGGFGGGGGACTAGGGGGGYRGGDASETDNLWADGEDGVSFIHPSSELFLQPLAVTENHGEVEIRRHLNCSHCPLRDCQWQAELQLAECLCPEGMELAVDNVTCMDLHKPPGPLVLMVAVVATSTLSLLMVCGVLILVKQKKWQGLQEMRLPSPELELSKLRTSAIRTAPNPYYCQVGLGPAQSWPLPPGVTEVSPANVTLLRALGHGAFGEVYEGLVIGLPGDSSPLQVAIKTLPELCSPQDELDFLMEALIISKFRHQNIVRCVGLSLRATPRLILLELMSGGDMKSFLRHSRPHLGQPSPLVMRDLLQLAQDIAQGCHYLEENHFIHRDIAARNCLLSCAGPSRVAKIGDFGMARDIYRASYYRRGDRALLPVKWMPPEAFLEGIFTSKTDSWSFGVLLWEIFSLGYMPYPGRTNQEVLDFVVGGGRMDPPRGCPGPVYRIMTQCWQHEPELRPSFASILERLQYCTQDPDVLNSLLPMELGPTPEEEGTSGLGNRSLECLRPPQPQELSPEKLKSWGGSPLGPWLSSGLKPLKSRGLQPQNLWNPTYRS
Experiment [4] deals with Vascular endothelial growth factor receptor 1 (Homo sapiens) (UniProt P17948). Kind of experiment: Residual activity of VEGFR1 at 0.1 uM by microplate scintillation counting.
Vascular endothelial growth factor receptor 1 (Homo sapiens), sequence (P17948 whole entry): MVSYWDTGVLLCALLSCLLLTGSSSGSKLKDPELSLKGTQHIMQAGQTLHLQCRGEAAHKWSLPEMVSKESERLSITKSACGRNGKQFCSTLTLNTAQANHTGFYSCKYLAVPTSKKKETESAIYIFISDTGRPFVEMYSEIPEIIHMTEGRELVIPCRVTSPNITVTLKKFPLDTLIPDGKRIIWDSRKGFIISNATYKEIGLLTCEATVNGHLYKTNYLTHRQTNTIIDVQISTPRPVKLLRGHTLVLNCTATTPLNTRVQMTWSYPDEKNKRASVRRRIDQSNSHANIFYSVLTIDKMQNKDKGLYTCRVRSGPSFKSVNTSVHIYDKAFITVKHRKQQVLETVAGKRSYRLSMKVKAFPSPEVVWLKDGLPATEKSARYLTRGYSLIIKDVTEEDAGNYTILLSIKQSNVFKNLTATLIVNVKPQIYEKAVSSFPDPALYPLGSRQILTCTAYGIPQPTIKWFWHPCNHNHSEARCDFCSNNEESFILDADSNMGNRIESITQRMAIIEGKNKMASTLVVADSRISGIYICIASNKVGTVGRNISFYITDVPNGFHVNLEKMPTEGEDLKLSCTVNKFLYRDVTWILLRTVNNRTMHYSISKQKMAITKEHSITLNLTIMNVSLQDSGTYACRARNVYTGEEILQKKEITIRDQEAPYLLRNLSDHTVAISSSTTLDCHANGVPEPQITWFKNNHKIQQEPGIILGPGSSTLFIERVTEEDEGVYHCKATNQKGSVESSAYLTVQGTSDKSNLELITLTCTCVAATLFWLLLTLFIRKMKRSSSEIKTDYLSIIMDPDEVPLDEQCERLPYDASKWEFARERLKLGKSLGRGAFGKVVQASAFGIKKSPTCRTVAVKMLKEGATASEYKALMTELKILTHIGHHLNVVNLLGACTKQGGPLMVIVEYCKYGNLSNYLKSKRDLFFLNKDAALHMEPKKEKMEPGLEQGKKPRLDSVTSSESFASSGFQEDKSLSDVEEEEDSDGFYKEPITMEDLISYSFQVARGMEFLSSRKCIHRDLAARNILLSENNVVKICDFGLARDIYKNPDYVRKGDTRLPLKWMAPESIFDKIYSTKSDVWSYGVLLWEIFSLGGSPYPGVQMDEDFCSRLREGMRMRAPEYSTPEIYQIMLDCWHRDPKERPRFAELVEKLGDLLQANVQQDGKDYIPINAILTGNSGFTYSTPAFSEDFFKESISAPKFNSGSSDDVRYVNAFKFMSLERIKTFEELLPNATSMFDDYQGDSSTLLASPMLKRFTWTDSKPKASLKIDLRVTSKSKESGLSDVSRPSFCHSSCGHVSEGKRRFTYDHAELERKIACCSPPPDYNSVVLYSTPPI
Experiment [5] concerns the target T3, Testis-specific serine/threonine-protein kinase 2 (Homo sapiens) (UniProt Q96PF2).
T3 sequence (whole entry): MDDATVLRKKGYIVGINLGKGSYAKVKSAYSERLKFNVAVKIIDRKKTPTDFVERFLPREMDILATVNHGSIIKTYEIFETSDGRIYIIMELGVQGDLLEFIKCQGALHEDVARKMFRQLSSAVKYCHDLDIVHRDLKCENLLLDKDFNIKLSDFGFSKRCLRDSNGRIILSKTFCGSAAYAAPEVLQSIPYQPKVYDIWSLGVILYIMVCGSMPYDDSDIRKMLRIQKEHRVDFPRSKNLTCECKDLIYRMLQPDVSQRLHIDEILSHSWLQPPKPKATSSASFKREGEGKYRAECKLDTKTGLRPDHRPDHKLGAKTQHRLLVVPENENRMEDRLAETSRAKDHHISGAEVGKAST
Kind of experiment: Residual activity of TSK2 at 10 uM by microplate scintillation counting.

The target in experiment [6] is Serine/threonine-protein kinase PLK3 (Homo sapiens) (UniProt Q9H4B4). Kind of experiment: Residual activity of PLK3 at 1 uM by microplate scintillation counting.
Serine/threonine-protein kinase PLK3 (Homo sapiens), sequence (Q9H4B4 whole entry, looked up): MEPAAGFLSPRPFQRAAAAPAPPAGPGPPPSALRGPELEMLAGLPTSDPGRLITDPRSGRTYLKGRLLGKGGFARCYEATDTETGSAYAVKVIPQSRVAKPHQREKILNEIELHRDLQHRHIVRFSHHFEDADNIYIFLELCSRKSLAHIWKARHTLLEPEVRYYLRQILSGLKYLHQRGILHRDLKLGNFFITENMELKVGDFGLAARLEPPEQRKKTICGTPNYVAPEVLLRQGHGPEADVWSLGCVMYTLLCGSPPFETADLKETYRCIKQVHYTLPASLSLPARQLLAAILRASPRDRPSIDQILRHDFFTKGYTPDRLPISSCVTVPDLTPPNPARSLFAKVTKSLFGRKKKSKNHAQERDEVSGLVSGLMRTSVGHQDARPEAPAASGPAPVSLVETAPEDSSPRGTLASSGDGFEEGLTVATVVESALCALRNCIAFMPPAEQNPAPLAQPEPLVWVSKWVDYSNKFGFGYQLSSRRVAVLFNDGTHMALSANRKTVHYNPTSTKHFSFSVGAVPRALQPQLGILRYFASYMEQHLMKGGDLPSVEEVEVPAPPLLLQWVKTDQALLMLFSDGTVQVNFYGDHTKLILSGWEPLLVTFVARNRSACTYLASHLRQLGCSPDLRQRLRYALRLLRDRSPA
Experiment [7] has as its target 5'-AMP-activated protein kinase catalytic subunit alpha-1 (Homo sapiens) (UniProt Q13131). Nature of the experiment: Residual activity of AMPK-alpha1 fl at 0.1 uM by microplate scintillation counting.
The target in experiment [8] is T4, Interleukin-1 receptor-associated kinase 4 (Homo sapiens) (UniProt Q9NWZ3).
T4 sequence (whole entry): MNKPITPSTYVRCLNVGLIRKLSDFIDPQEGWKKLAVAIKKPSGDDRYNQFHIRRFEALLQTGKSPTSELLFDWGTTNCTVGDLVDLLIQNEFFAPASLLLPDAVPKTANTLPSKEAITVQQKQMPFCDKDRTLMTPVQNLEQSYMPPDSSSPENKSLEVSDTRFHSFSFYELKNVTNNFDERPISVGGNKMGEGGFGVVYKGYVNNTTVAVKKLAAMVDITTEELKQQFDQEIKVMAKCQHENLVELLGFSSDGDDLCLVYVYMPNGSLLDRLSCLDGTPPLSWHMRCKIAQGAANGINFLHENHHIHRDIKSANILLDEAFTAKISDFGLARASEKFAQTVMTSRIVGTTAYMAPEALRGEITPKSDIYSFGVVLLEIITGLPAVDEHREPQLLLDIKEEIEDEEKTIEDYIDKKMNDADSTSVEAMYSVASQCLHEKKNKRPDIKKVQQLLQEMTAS
Nature of the experiment: Residual activity of IRAK4 at 0.1 uM by microplate scintillation counting.

Experiment [9] concerns the target Epidermal growth factor receptor (Homo sapiens, UniProt P00533). Nature of the experiment: Residual activity of wild type EGF-R at 1 uM by microplate scintillation counting.
The target of experiment [10] is T5, Protein kinase C epsilon type (Homo sapiens) (UniProt Q02156).
T5 sequence (whole entry): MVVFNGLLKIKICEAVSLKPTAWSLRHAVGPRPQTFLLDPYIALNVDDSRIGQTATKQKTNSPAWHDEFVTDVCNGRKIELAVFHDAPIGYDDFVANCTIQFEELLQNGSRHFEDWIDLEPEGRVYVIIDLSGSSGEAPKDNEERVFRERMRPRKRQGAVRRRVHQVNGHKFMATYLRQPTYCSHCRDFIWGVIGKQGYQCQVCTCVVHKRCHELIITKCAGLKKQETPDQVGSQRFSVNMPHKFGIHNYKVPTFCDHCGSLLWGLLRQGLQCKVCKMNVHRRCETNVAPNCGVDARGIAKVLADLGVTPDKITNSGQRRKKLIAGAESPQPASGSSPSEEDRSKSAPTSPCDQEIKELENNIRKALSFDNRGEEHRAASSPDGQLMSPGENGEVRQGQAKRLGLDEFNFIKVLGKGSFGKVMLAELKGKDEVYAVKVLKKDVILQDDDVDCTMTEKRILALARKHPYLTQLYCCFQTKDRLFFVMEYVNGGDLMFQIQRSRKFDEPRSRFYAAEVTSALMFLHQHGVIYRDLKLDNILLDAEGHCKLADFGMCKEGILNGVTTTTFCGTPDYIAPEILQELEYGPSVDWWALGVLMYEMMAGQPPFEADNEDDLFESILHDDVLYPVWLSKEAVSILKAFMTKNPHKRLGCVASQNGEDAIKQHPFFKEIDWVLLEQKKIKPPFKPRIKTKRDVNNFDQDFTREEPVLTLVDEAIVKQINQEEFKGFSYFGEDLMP
Kind of experiment: Residual activity of PKCepsilon at 1 uM by microplate scintillation counting.

Epidermal growth factor receptor, sequence (P00533 whole entry): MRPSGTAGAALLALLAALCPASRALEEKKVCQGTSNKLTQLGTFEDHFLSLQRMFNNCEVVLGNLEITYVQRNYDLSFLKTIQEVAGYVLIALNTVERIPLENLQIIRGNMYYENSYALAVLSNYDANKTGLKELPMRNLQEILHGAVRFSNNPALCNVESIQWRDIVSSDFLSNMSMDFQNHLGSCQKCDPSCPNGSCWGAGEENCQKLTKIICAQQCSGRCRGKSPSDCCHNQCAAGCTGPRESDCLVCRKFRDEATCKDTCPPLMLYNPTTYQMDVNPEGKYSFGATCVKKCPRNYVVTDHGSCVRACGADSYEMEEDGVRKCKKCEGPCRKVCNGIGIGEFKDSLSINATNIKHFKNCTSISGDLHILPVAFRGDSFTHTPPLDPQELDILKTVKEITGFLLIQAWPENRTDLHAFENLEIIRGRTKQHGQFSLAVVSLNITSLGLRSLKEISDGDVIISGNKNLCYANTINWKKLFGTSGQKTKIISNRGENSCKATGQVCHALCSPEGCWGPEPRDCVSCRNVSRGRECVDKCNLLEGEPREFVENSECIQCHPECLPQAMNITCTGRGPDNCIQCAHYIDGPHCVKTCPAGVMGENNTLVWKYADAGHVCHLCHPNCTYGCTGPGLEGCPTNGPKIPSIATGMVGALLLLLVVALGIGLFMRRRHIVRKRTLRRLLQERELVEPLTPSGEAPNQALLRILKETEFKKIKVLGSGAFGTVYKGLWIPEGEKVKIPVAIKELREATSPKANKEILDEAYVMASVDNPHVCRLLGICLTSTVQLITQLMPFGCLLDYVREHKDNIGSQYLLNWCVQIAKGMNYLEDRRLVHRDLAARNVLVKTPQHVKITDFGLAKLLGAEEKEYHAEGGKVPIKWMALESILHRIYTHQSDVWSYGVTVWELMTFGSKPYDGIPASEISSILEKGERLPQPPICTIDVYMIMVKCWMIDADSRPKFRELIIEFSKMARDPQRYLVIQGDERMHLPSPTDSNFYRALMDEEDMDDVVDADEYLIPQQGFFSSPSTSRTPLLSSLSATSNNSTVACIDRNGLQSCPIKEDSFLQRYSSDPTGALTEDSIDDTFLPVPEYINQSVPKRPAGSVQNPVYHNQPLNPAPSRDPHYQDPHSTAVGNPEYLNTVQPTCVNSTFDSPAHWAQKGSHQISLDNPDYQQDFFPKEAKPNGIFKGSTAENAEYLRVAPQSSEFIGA
5'-AMP-activated protein kinase catalytic subunit alpha-1 (Homo sapiens), sequence (Q13131 whole entry, looked up): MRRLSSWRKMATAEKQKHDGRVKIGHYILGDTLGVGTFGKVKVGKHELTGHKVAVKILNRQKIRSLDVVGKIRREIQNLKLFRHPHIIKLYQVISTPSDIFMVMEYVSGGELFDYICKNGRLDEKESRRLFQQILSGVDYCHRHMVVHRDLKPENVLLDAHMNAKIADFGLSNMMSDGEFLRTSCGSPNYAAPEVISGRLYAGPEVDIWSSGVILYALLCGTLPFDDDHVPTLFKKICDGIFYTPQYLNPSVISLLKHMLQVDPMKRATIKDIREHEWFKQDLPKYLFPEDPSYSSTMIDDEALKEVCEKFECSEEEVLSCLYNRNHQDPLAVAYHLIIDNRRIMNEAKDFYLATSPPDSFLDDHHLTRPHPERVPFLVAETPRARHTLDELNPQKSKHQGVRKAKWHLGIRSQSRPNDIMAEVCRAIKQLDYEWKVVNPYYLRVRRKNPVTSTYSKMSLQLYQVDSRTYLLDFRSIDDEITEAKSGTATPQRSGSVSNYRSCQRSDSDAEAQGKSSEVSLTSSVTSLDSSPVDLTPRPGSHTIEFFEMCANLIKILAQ

For `COc1cc2c(Oc3ccc(-c4nc5ccccc5s4)cc3F)ncnc2cc1OCCCN1CCN(C)CC1`, the residual activity in [1] turned out to be 65%; in [2] it was 117%; in [3], 101%; in experiment [4] it was 95%; in [5], 111%; in experiment [6] it was 94%. The residual activity was found to be 86% in experiment [7], 101% in experiment [8], 96% in [9] and 90% in [10].

Take `COc1cc2c(Oc3ccc(-c4nc5ccccc5s4)cc3)ncnc2cc1OCCCN1CCN(C)CC1`: the residual activity is 58% in [1]; 0% in [2]; 82% in [3]; 93% in experiment [4]; 109% in experiment [5]; 100% in [6]. The residual activity in [7] was found to be 94%; in [8] it was 100%; in [9] it was 77%; in experiment [10], 94%.

In the case of `COc1cc2c(Oc3ccc(-c4nc5ccccc5s4)cc3)ncnc2cc1OCCCN1CCCC1`, the residual activity in experiment [1] worked out at 49%; in experiment [2] it was 92%; in experiment [3], 99%; in experiment [4], 96%; in [5] it was 110%; in experiment [6], 101%. Besides, the residual activity in [7] was determined as 101%; in [8] it was 96%; in experiment [9], 91%; in experiment [10] it was 80%.
